Measured values reported in patent US9656984B2, “PI3K/AKT/mTOR inhibitors and pharmaceutical uses thereof” (UNIVERSITE DE RENNES 1, priority 2013, dated 2017).

What was measured:
[1] = test system: MCF-7 (ER-positive) breast tumor cell line; experiment: Cell death by MTT assay, MCF-7; type: cell-based, human; details: 24 hours, mean of four experiments
Method: (§1) The ER-positive breast tumor cell lines MCF-7 and T47-D and the HER2 positive breast tumor cell lines MDA-MB-453 and BT474 (also ER-positive) were incubated with the indicated concentration of each mentioned compound of formula (I) for 24 hours and then cell death was assessed using MTT assay.
(§2) For each cell line, the percentage of cell death (mean of four experiments for cell lines MCF-7 and T47-D, and two experiments for cell lines MDA-MB-453 and BT474) is given in view of the increasing concentration of each tested compound of the invention.
(§3) Cell viability was assessed using the 3-[4,5-dimethylthiazol-2-yl]-2,5-diphenyltetrazolium bromide (MTT) viability assay (1). In brief, cells (4×10^4 per well) were cultured for 20 h in flat-bottomed 96 well plates with various concentrations of the apoptosis inducer. Then 0.015 ml of MTT (5 mg/ml in PBS) was added to each well and incubated for 4 h at 37° C. Formazan salt precipitats were dissolved by adding 0.115 ml of isopropyl alcohol containing 1% formic acid (v/v), and the absorbance was measured at 570 nm.

[2] = test system: MDA-MB-453 (HER2 positive) breast tumor cell line; experiment: Cell death by MTT assay, MDA-MB-453; type: cell-based, human; details: 24 hours, mean of two experiments
Method: as §1, §2, §3

[3] = test system: T47-D (ER-positive) breast tumor cell line; experiment: Cell death by MTT assay, T47-D; type: cell-based, human; details: 24 hours, mean of four experiments
Method: as §1, §2, §3

[4] = test system: BT474 (ER-positive/HER2-positive) breast tumor cell line; experiment: Cell death by MTT assay, BT474; type: cell-based, human; details: 24 hours, mean of two experiments
Method: as §1, §2, §3

AKT phosphorylation = experiment: In cellulo IC50 of AKT phosphorylation in CEM cells (Western blot densitometry); type: cell-based; details: Homo sapiens, CCRF-CEM, 2 hours incubation, AKT phosphorylation vs whole AKT, read-out: In vivo IC50
Method: CEM cells were incubated for 2 hours with the indicated concentrations of each mentioned compound of formula (I). Cells were then lysed and 100 μg of protein was loaded per line in an SDS-PAGE. Bands from AKT phosphorylation and whole AKT observed by Western blot were scanned and quantified by densitometric analysis. Based on these values, an in cellulo IC50 (half maximal inhibitory concentration) was measured for each compound of formula (I).
(§4) Immunoblots Excepted for immunoprecipitation experiments in which cells were lyzed with RIPA buffer, cells were lyzed for 30 min at 4° C. in Lysis buffer (25 mM HEPES pH 7.4, 1% v/v Triton X-100, 150 mM NaCl, 2 mM EGTA supplemented with a mix of protease inhibitors). Protein concentration was determined by the bicinchoninic acid method (Pierce, Rockford, Ill., USA) according to the manufacturer's protocol. Proteins were resolved by 8, 10 or 12% SDS-PAGE and transferred to a nitrocellulose membrane (GE Healthcare, Buckinghamshire, UK). The membrane was blocked 15 min with TBST (50 mM Tris, 160 mM NaCl, 0.05% v/v Tween 20, pH 7.4) containing 5% w/v dried skimmed milk (TBS™). Primary antibody was incubated overnight at 4° C. in TBS™. The membrane was intensively washed (TBST) and then the peroxydase-labeled anti-mouse IgG1 or IgG2a (CliniSciences, Nanterre, France) was added for 45 min. Proteins were visualized with the enhanced chemiluminescence substrate kit (ECL RevelBIOt®, Ozyme, Saint Quentin en Yvelines, France).

[5] = test system: PI3K/AKT activity (AKT phosphorylation); experiment: PI3K/AKT/mTOR pathway inhibitory activity: level of AKT phosphorylation in CEM cells over time; type: cell-based, human; details: 10 μM, FIGS. 7 and 8
Method: The CEM cell was incubated with 10 μM of each mentioned compound of formula (I) for the indicated times and then cells were lysed and 100 μg of protein was loaded per line and resolved by SDS-PAGE. The levels of AKT phosphorylation (hallmark of PI3K activation) and total AKT (loading control) were analyzed by Western blot and the amount of AKT phosphorylation relative to the total amount of protein AKT was quantified by densitometric analysis, the intensity of each band was scanned and the level of AKT phosphorylation was reported to the amount of whole AKT and the percentage of phosphorylated-AKT was depicted.
as §4

melting point	IC50 (AKT phosphorylation)	SMILES	percentage of cell death ([2]; MDA-MB-453, 0.390625 μM)	percentage of cell death ([2]; MDA-MB-453, 0.78125 μM)	percentage of cell death ([2]; MDA-MB-453, 1.5625 μM)	percentage of cell death ([2]; MDA-MB-453, 3.125 μM)	percentage of cell death ([2]; MDA-MB-453, 6.25 μM)	percentage of cell death ([2]; MDA-MB-453, 12.5 μM)	percentage of cell death ([2]; MDA-MB-453, 25 μM)	percentage of cell death ([2]; MDA-MB-453, 50 μM)	inhibitory activity on PI3K/AKT (level of AKT phosphorylation) [5]	also measured
118 to 120 °C	–	COC(=O)C1=Cc2cc(Br)ccc2OC1c1ccc(Br)cc1 (stereo not shown) [Compound 55, Methyl-6-Bromo-2-(4-bromophenyl)-2H-chromene-3-carboxylate]	–	–	–	–	–	–	–	–	–	–
196 to 198 °C	–	N#CC1=Cc2cc(Br)cc(Br)c2OC1c1ccc(Br)cc1 (stereo not shown) [Compound 62, 6,8-Dibromo-2-(4-bromophenyl)-2H-chromene-3-carbonitrile]	–	–	–	–	–	–	–	–	–	–
136 to 138 °C	–	N#CC1=Cc2cc(Br)ccc2OC1c1ccc(Br)cc1 (stereo not shown) [Compound 61, 6-Bromo-2-(4-bromophenyl)-2H-chromene-3-carbonitrile]	–	–	–	–	–	–	–	–	–	–
158 to 160 °C	–	ON=CC1=Cc2cc(Br)ccc2OC1c1ccc(Br)cc1 (stereo not shown) [Compound 59, 6-Bromo-2-(4-bromophenyl)-2H-chromene-3-carbaldehyde oxime]	–	–	–	–	–	–	–	–	–	–
256 to 258 °C	–	O=C(O)C1=Cc2cc(Br)cc(Br)c2OC1c1ccc(Br)cc1 (stereo not shown) [Compound 54, 6,8-dibromo-2(4-bromophenyl)-2H-chromene-3-carboxylic acid]	–	–	–	–	–	–	–	–	–	–

More lines, now with the values behind:

SMILES	melting point	IC50 (AKT phosphorylation)	percentage of cell death ([2]; MDA-MB-453, 0.390625 μM)	percentage of cell death ([2]; MDA-MB-453, 0.78125 μM)	percentage of cell death ([2]; MDA-MB-453, 1.5625 μM)	percentage of cell death ([2]; MDA-MB-453, 3.125 μM)	percentage of cell death ([2]; MDA-MB-453, 6.25 μM)	percentage of cell death ([2]; MDA-MB-453, 12.5 μM)	percentage of cell death ([2]; MDA-MB-453, 25 μM)	percentage of cell death ([2]; MDA-MB-453, 50 μM)	inhibitory activity on PI3K/AKT (level of AKT phosphorylation) [5]	also measured
O=[N+]([O-])C1Cc2cc(Br)ccc2OC1c1ccc(F)cc1 (stereo not shown) [Compound 7, 6-bromo-2-(4-fluorophenyl)-3-nitro-3,4-dihydro-2H-chromene]	–	–	1.13%	0%	13.84%	52.93%	65.61%	97.05%	102.46%	100.25%	–	percentage of cell death ([1]; MCF-7, 6.25 μM): 10.88%; percentage of cell death ([1]; MCF-7, 12.5 μM): 38.7%; percentage of cell death ([1]; MCF-7, 25 μM): 79.7%; percentage of cell death ([1]; MCF-7, 50 μM): 95.55%; percentage of cell death ([3]; 6.25 μM): 34.43%; percentage of cell death ([3]; 12.5 μM): 85.1%; percentage of cell death ([3]; 25 μM): 92.07%; percentage of cell death ([3]; 50 μM): 88.3%; percentage of cell death ([4]; BT474, 6.25 μM): 44.85%; percentage of cell death ([4]; BT474, 12.5 μM): 55.3%; percentage of cell death ([4]; BT474, 25 μM): 91.87%; percentage of cell death ([4]; BT474, 50 μM): 96.07%
O=C(O)C1=Cc2cc(Br)ccc2OC1c1ccc(Br)cc1 (stereo not shown) [Compound 53, 6-bromo-2-(4-bromophenyl)-2H-chromene-3-carboxylic acid]	208 to 210 °C	–	–	–	–	–	–	–	–	–	–	–
O=[N+]([O-])C1=Cc2cc(Br)ccc2OC1c1ccc(Cl)cc1 (stereo not shown) [Compound 10, 6-bromo-2-(4-chloro-phenyl)-3-nitro-2H-chromene]	–	2000 nM	6.6%	7.8%	5.06%	70.42%	76.17%	93.07%	98.46%	99.07%	very strong inhibitors	percentage of cell death ([1]; MCF-7, 6.25 μM): 0%; percentage of cell death ([1]; MCF-7, 12.5 μM): 24.06%; percentage of cell death ([1]; MCF-7, 25 μM): 49.08%; percentage of cell death ([1]; MCF-7, 50 μM): 81.85%; percentage of cell death ([3]; 6.25 μM): 4.62%; percentage of cell death ([3]; 12.5 μM): 87.84%; percentage of cell death ([3]; 25 μM): 91.71%; percentage of cell death ([3]; 50 μM): 92.93%; percentage of cell death ([4]; BT474, 6.25 μM): 0%; percentage of cell death ([4]; BT474, 12.5 μM): 40.42%; percentage of cell death ([4]; BT474, 25 μM): 69.52%; percentage of cell death ([4]; BT474, 50 μM): 93.84%
CCOc1cccc2c1OC(c1ccc(Cl)cc1)C([N+](=O)[O-])=C2 (stereo not shown) [Compound 14, 2-(4-chloro-phenyl)-8-ethoxy-3-nitro-2H-chromene]	–	10000 nM	–	–	–	–	–	–	–	–	very strong inhibitors	–
O=CC1=Cc2cc(Br)ccc2OC1c1ccc(Br)cc1 (stereo not shown) [Compound 44, 6-Bromo-2-(4-bromophenyl)-2H-chromene-3-carbaldehyde]	144 to 146 °C	–	–	–	–	–	–	–	–	–	–	–
CCOc1cccc2c1OC(c1ccc(Br)cc1)C([N+](=O)[O-])=C2 (stereo not shown) [Compound 13, 2-(4-bromo-phenyl)-8-ethoxy-3-nitro-2H-chromene]	–	8000 nM	–	–	–	–	–	–	–	–	very strong inhibitors	–
O=[N+]([O-])C1=Cc2cc(Br)ccc2OC1c1ccc(Br)cc1 (stereo not shown) [Compound 9, 6-bromo-2-(4-bromo-phenyl)-3-nitro-2H-chromene]	–	400 nM	1.52%	7.56%	4.67%	53.8%	71.22%	87.47%	97.49%	98.67%	very strong inhibitors	percentage of cell death ([1]; MCF-7, 6.25 μM): 0%; percentage of cell death ([1]; MCF-7, 12.5 μM): 32.14%; percentage of cell death ([1]; MCF-7, 25 μM): 52.18%; percentage of cell death ([1]; MCF-7, 50 μM): 80.16%; percentage of cell death ([3]; 6.25 μM): 20.53%; percentage of cell death ([3]; 12.5 μM): 92.97%; percentage of cell death ([3]; 25 μM): 91.2%; percentage of cell death ([3]; 50 μM): 93.62%; percentage of cell death ([4]; BT474, 6.25 μM): 25.95%; percentage of cell death ([4]; BT474, 12.5 μM): 71.4%; percentage of cell death ([4]; BT474, 25 μM): 88.01%; percentage of cell death ([4]; BT474, 50 μM): 93.62%
O=[N+]([O-])C1=Cc2cccc(Br)c2OC1c1ccc(Cl)cc1 (stereo not shown) [Compound 19, 8-bromo-2-(4-chloro-phenyl)-3-nitro-2H-chromene]	–	> 10000 nM	0%	0%	0%	24.69%	53.93%	91.89%	98.05%	101.13%	very strong inhibitors	percentage of cell death ([1]; MCF-7, 6.25 μM): 0%; percentage of cell death ([1]; MCF-7, 12.5 μM): 25.75%; percentage of cell death ([1]; MCF-7, 25 μM): 52.14%; percentage of cell death ([1]; MCF-7, 50 μM): 84.65%
O=[N+]([O-])C1=Cc2cccc(Br)c2OC1c1ccc(Br)cc1 (stereo not shown) [Compound 18, 8-bromo-2-(4-bromo-phenyl)-3-nitro-2H-chromene]	–	1500 nM	3.17%	3.17%	0%	0%	45.963%	81.73%	93.72%	100%	very strong inhibitors	percentage of cell death ([3]; 6.25 μM): 0%; percentage of cell death ([3]; 12.5 μM): 0%; percentage of cell death ([3]; 25 μM): 23.71%; percentage of cell death ([3]; 50 μM): 78.28%
